From patent US20240228502A1, “2-PHENYLAMINO PYRROLOPYRIMIDINES AS ACK1 INHIBITORS” (H. LEE MOFFITT CANCER CENTER AND RESEARCH INSTITUTE, INC., priority 2021, published 2024)

What was measured:
ACK1 [1] = biological target: T1, ACK1 (Homo sapiens, UniProt Q07912); assay: ACK1 inhibition (ACK1 IC50); type: biochemical
ACK1 [2] = biological target: T1, ACK1; assay: DSF = Differential Scanning Fluorimetry, thermal shift; type: binding
UKE1 = assay: Cell viability, UKE1; type: cell-based
MDA-MB-231 = assay: Cell viability, MDA-MB-231; type: cell-based
[3] = Homo sapiens, MDA-MB-231, MDA-MB-231

T1 sequence (Q07912 whole entry): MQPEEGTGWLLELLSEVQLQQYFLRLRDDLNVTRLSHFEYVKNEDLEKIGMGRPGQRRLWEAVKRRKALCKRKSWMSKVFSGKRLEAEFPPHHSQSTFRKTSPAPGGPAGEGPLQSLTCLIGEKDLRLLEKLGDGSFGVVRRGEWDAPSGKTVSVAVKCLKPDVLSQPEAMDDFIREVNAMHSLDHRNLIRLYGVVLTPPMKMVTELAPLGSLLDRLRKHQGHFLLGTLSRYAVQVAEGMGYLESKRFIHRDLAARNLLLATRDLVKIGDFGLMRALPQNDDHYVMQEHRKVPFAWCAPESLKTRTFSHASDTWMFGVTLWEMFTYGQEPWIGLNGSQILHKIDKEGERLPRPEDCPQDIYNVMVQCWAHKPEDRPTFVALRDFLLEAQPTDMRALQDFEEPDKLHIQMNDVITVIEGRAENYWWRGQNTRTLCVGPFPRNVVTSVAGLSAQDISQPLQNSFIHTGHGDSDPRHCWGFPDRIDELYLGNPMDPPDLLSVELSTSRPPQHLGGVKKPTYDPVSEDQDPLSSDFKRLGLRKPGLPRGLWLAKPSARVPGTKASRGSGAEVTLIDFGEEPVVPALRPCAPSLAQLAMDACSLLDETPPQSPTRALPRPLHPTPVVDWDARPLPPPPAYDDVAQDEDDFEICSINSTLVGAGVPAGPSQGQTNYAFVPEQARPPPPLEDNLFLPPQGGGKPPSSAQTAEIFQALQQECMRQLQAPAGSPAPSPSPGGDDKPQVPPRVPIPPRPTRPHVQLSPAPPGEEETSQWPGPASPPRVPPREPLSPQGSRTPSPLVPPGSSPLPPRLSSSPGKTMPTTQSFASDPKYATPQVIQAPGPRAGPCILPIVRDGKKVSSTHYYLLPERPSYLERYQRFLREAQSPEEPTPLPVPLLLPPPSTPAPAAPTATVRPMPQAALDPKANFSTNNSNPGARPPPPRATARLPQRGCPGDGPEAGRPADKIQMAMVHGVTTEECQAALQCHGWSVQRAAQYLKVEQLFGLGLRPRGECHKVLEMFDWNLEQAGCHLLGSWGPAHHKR

Row | SMILES | IC50 (ACK1 [1]) | DSF (ΔTm (° C.)) (ACK1 [2]) | also measured
1 | Cc1cc(N2CCN(C)CC2)c(F)cc1Nc1ncc2ccn(-c3cccc(N4CCCCS4(=O)=O)c3)c2n1 | – | 6.2 °C | –
2 | COc1cc(N2CCN(C)CC2)ccc1Nc1ncc2ccn(-c3ccc(S(=O)(=O)NC(C)C)cc3)c2n1 | – | 8.1 °C | –
3 | Cc1cc(N2CCN(C)CC2)c(F)cc1Nc1ncc2ccn(-c3ccc(NS(=O)(=O)C(C)C)cc3)c2n1 | – | 7.3 °C | –
4 | CC(C)S(=O)(=O)Nc1ccc(-n2ccc3cnc(Nc4ccc(N5CCN(C)CC5)c(F)c4)nc32)cc1 | – | 6.1 °C | –
5 | CN1CCN(c2cccc(Nc3ncc4ccn(CC5CCOCC5)c4n3)c2)CC1 | < 500 nM | – | –
6 | CN1CCN(c2cc(Cl)c(Nc3ncc4ccn(CC5CCOCC5)c4n3)cc2F)CC1 | < 250 nM | 6.4 °C | –
7 | Cn1cc(-c2ccc(Nc3ncc4ccn(CC5CCCO5)c4n3)cc2)cn1 (stereo not drawn) | < 250 nM | – | –
8 | CN1CCN(c2ccc(Nc3ncc4ccn(CC5CCOCC5)c4n3)cc2)CC1 | < 250 nM | – | –
9 | CN1CCN(c2ccc(Nc3ncc4ccn(CC5CCOCC5)c4n3)cc2F)CC1 | < 250 nM | – | –
10 | CN1CCN(c2cc(Cl)c(Nc3ncc4ccn(-c5cccc(N6CCCCS6(=O)=O)c5)c4n3)cc2F)CC1 | < 250 nM | – | –
11 | CC(C)S(=O)(=O)Nc1ccc(-n2ccc3cnc(Nc4ccc(N5CCN(C)CC5)c(OCCO)c4)nc32)cc1 | – | 5.3 °C | –
12 | CC(C)Oc1cc(Nc2ncc3ccn(-c4cccc(NS(=O)(=O)C(C)C)c4)c3n2)ccc1N1CCN(C)CC1 | < 250 nM | 5.2 °C | EC50 (UKE1; UKE1, UKE1): 310 nM; EC50 (MDA-MB-231; [3]): 164 nM
13 | COc1cc(N2CCN(C)CC2)ccc1Nc1ncc2ccn(CC3CCCO3)c2n1 (stereo not drawn) | < 250 nM | – | –
14 | COc1cc(Nc2ncc3ccn(-c4cccc(NS(=O)(=O)C(C)C)c4)c3n2)ccc1-c1cnn(C)c1 | < 250 nM | – | –
15 | CN1CCN(c2ccc(Nc3ncc4ccn(-c5ccc(N6CCCS6(=O)=O)cc5)c4n3)cc2F)CC1 | – | 5.6 °C | –
16 | COc1cc(N2CCN(C)CC2)c(F)cc1Nc1ncc2ccn(-c3ccc(S(=O)(=O)NC(C)C)cc3)c2n1 | – | 4.4 °C | –
17 | COc1cc(N2CCN(C)CC2)ccc1Nc1ncc2ccn(-c3cccc(NS(=O)(=O)C(C)C)c3)c2n1 | < 250 nM | 7.6 °C | EC50 (UKE1; UKE1, UKE1): 2700 nM; EC50 (MDA-MB-231; [3]): 5150 nM
18 | Cc1cn(CC2CCOCC2)c2nc(Nc3ccc(-c4cnn(C)c4)c(OC(C)C)c3)ncc12 | < 250 nM | – | –
19 | COc1cc(N2CCN(C)CC2)c(F)cc1Nc1ncc2ccn(CCc3ccc(F)cc3)c2n1 | < 250 nM | – | –
20 | COc1cc(Nc2ncc3ccn(-c4cccc(NS(=O)(=O)C(C)C)c4)c3n2)ccc1N1CCN(C)CC1 | < 250 nM | 6.4 °C | EC50 (UKE1; UKE1, UKE1): 110 nM; EC50 (MDA-MB-231; [3]): 231 nM
21 | COc1cc(N2CCN(C)CC2)ccc1Nc1ncc2ccn(CC3CCOCC3)c2n1 | < 250 nM | – | –

Row | SMILES | IC50 (ACK1 [1]) | DSF (ΔTm (° C.)) (ACK1 [2]) | also measured
22 | CC(C)Oc1cc(Nc2ncc3ccn(C[C@H]4CCCO4)c3n2)ccc1N1CCN(C)CC1 | < 250 nM | 5.3 °C | EC50 (UKE1; UKE1, UKE1): 1000 nM; EC50 (MDA-MB-231; [3]): 1100 nM
23 | COc1cc(N2CCN(C)CC2)c(F)cc1Nc1ncc2ccn(CCc3ccccc3Cl)c2n1 | < 250 nM | – | –
24 | COc1cc(Nc2ncc3ccn(CC4CCCO4)c3n2)ccc1-c1cnn(C)c1 (stereo not drawn) | < 250 nM | – | –
25 | COc1cc(N2CCN(C)CC2)c(F)cc1Nc1ncc2ccn(CCc3ccccc3)c2n1 | < 250 nM | – | –
26 | COc1c(Nc2ncc3ccn(CC4CCOCC4)c3n2)cc(F)c(N2CCN(C)CC2)c1F | > 1000 nM | – | –
27 | CC(C)Oc1cc(Nc2ncc3ccn(CC4CCCO4)c3n2)ccc1N1CCN(C)CC1 (stereo not drawn) | < 250 nM | – | EC50 (UKE1; UKE1, UKE1): 1100 nM; EC50 (MDA-MB-231; [3]): 2000 nM
28 | CC(C)Oc1cc(N2CCN(C)CC2)ccc1Nc1ncc2ccn(CCc3ccccc3)c2n1 | < 1000 nM | – | –
29 | COc1cc(N2CCN(C)CC2)c(F)cc1Nc1ncc2ccn(CC3CCCO3)c2n1 (stereo not drawn) | < 250 nM | – | –
30 | Cc1cn(CC2CCCO2)c2nc(Nc3ccc(N4CCN(C)CC4)cc3)ncc12 (stereo not drawn) | < 250 nM | – | –
31 | COc1cc(N2CCN(C)CC2)c(F)cc1Nc1ncc2ccn(-c3cccc(N4CCCCS4(=O)=O)c3)c2n1 | < 250 nM | – | EC50 (UKE1; UKE1, UKE1): 1300 nM; EC50 (MDA-MB-231; [3]): 3400 nM
32 | CN1CCN(c2ccc(Nc3ncc4ccn(CC5CCCO5)c4n3)cc2OCCO)CC1 (stereo not drawn) | < 250 nM | 5.3 °C | EC50 (UKE1; UKE1): 710 nM; EC50 (UKE1; UKE1, UKE1): 1280 nM; EC50 (MDA-MB-231; [3]): 720 nM; EC50 (MDA-MB-231; MDA-MB-231): 1280 nM
33 | CN1CCN(c2ccc(Nc3ncc4ccn(CC5CCCO5)c4n3)cc2OC2CCC2)CC1 (stereo not drawn) | < 250 nM | – | EC50 (UKE1; UKE1): 1500 nM; EC50 (UKE1; UKE1, UKE1): 1720 nM; EC50 (MDA-MB-231; [3]): 1500 nM; EC50 (MDA-MB-231; MDA-MB-231): 1710 nM
34 | Cc1cn(CC2CCCO2)c2nc(Nc3ccc(-c4cnn(C)c4)c(OC(C)C)c3)ncc12 (stereo not drawn) | < 500 nM | 2.1 °C | –
35 | COc1cc(N2CCN(C)CC2)ccc1Nc1ncc2ccn(-c3ccc(NS(=O)(=O)C(C)C)cc3)c2n1 | – | 6.5 °C | –
36 | CN1CCN(c2ccc(Nc3ncc4ccn(-c5cccc(N6CCCS6(=O)=O)c5)c4n3)cc2F)CC1 | < 250 nM | – | EC50 (UKE1; UKE1, UKE1): 55 nM; EC50 (MDA-MB-231; [3]): 840 nM
37 | CN1CCN(c2cc(Cl)c(Nc3ncc4ccn(CC5CCCO5)c4n3)cc2F)CC1 (stereo not drawn) | < 250 nM | – | –
38 | COc1cc(N2CCN(C)CC2)c(F)cc1Nc1ncc2ccn(-c3ccc(NS(=O)(=O)C(C)C)cc3)c2n1 | – | 9.3 °C | –
39 | CN1CCN(c2ccc(Nc3ncc4ccn(CC5CCCO5)c4n3)c(OC3CCC3)c2)CC1 (stereo not drawn) | < 250 nM | – | –
40 | Cc1cc(N2CCN(C)CC2)c(F)cc1Nc1ncc2ccn(-c3ccc(S(=O)(=O)NC(C)C)cc3)c2n1 | – | 7.7 °C | –
41 | CC(C)Oc1cc(Nc2ncc3ccn(CCc4ccccc4)c3n2)ccc1-c1cnn(C)c1 | < 750 nM | – | –
42 | CC(C)Oc1cc(Nc2ncc3c(F)cn(CC4CCCO4)c3n2)ccc1C1CCN(C)CC1 (stereo not drawn) | < 250 nM | – | –

The next lines start with results.

Row | IC50 (ACK1 [1]) | DSF (ΔTm (° C.)) (ACK1 [2]) | SMILES | also measured
43 | < 250 nM | – | Cc1cn(CC2CCOCC2)c2nc(Nc3ccc(N4CCN(C)CC4)c(OC(C)C)c3)ncc12 | –
44 | < 250 nM | – | CN1CCN(c2ccc(Nc3ncc4ccn(CC5CCCO5)c4n3)cc2)CC1 (stereo not drawn) | –
45 | < 250 nM | – | COc1cc(N2CCN(C)CC2)c(F)cc1Nc1ncc2ccn(-c3cccc(N4CCCS4(=O)=O)c3)c2n1 | –
46 | < 250 nM | – | COc1c(Nc2ncc3ccn(-c4ccc(NS(=O)(=O)C(C)C)cc4)c3n2)cc(F)c(N2CCN(C)CC2)c1F | –
47 | < 250 nM | – | COc1cc(N2CCN(C)CC2)c(F)cc1Nc1ncc2ccn(CC3CCOCC3)c2n1 | EC50 (UKE1; UKE1, UKE1): > 10000 nM; EC50 (MDA-MB-231; [3]): > 10000 nM
48 | < 250 nM | – | COc1cc(Nc2ncc3c(C)cn(CC4CCOCC4)c3n2)ccc1-c1cnn(C)c1 | –
49 | < 250 nM | – | COc1cc(N2CCN(C)CC2)c(F)cc1Nc1ncc2ccn(C[C@H]3CCCO3)c2n1 | –
50 | < 250 nM | – | CN1CCN(c2ccc(Nc3ncc4ccn(CC5CCOCC5)c4n3)c(OC3CCC3)c2)CC1 | –
51 | < 250 nM | 4.5 °C | CC(C)S(=O)(=O)Nc1cccc(-n2ccc3cnc(Nc4ccc(N5CCN(C)CC5)c(F)c4)nc32)c1 | EC50 (UKE1; UKE1, UKE1): 74 nM; EC50 (MDA-MB-231; [3]): 462 nM
52 | < 250 nM | – | COc1cc(N2CCN(C)CC2)ccc1Nc1ncc2c(F)cn(CC3CCCO3)c2n1 (stereo not drawn) | –
53 | < 250 nM | – | Cn1cc(-c2ccc(Nc3ncc4ccn(CC5CCOCC5)c4n3)cc2)cn1 | –
54 | < 250 nM | – | COc1ccccc1CCn1ccc2cnc(Nc3cc(F)c(N4CCN(C)CC4)cc3OC)nc21 | –
55 | < 250 nM | – | CC(C)Oc1cc(Nc2ncc3ccn(-c4cccc(NS(=O)(=O)C(C)C)c4)c3n2)ccc1-c1cnn(C)c1 | –
56 | < 250 nM | – | CN1CCN(c2ccc(Nc3ncc4ccn(C[C@H]5CCCO5)c4n3)cc2F)CC1 | –
57 | < 250 nM | 6.4 °C | CC(C)S(=O)(=O)Nc1cccc(-n2ccc3cnc(Nc4ccc(N5CCN(C)CC5)c(OCCO)c4)nc32)c1 | EC50 (UKE1; UKE1, UKE1): 390 nM; EC50 (MDA-MB-231; [3]): 151 nM
58 | < 250 nM | 5.2 °C | COc1cc(N2CCN(C)CC2)c(F)cc1Nc1ncc2ccn(-c3ccc(N4CCCS4(=O)=O)cc3)c2n1 | EC50 (UKE1; UKE1, UKE1): 1400 nM; EC50 (MDA-MB-231; [3]): 3940 nM
59 | < 250 nM | – | Cc1cn(CC2CCCO2)c2nc(Nc3ccc(N4CCN(C)CC4)c(OC(C)C)c3)ncc12 (stereo not drawn) | –
60 | < 250 nM | 4.8 °C | COc1cc(N2CCN(C)CC2)c(F)cc1Nc1ncc2ccn(-c3cccc(NS(=O)(=O)C(C)C)c3)c2n1 | EC50 (UKE1; UKE1, UKE1): 940 nM; EC50 (MDA-MB-231; [3]): 1580 nM
61 | < 250 nM | – | CN1CCN(c2cccc(Nc3ncc4ccn(CC5CCCO5)c4n3)c2)CC1 (stereo not drawn) | –
62 | < 250 nM | – | CC(C)Oc1cc(Nc2ncc3ccn(CC4CCOCC4)c3n2)ccc1N1CCN(C)CC1 | EC50 (UKE1; UKE1, UKE1): 3100 nM; EC50 (MDA-MB-231; [3]): 3500 nM
63 | < 250 nM | 4.5 °C | CC(C)Oc1cc(Nc2ncc3ccn(CCc4ccccc4)c3n2)ccc1N1CCN(C)CC1 | EC50 (UKE1; UKE1, UKE1): 1800 nM; EC50 (MDA-MB-231; [3]): 3420 nM
64 | < 250 nM | – | CC(C)COc1cc(Nc2ncc3ccn(CC4CCCO4)c3n2)ccc1N1CCN(C)CC1 (stereo not drawn) | –
65 | < 250 nM | – | CN1CCN(c2ccc(Nc3ncc4ccn(CC5CCCO5)c4n3)cc2OC2CCCC2)CC1 (stereo not drawn) | EC50 (UKE1; UKE1, UKE1): 2100 nM; EC50 (MDA-MB-231; [3]): 2100 nM; EC50 (MDA-MB-231; MDA-MB-231): 1050 nM
66 | < 250 nM | – | CC(C)S(=O)(=O)Nc1cccc(-n2ccc3cnc(Nc4cc(F)c(N5CCN(C)CC5)cc4Cl)nc32)c1 | –
